Reference: ChEMBL document CHEMBL3988442, “University of Dundee, Small-Polar-MMV Screening Library” (2021)
Several values for one entry are separate records, joined by “and”; a condition that tells them apart may be missing. Equal values may be shown once.

What was measured:
[1] = test system: Plasmodium falciparum; assay: Calibr Malaria Delayed Death Assay SOP; type: functional, organism-based; conditions: for IC50: Plasmodium falciparum
[2] = microbe, parasite or virus in culture; conditions: Mycobacterium tuberculosis, 72 h, read-out: pIC50 (converted)
[3] = microbe, parasite or virus in culture; conditions: Mycobacterium tuberculosis, 96 h, read-out: pIC50 (converted)

Row | SMILES | pIC50 [1] | IC50 [1] | IC50 [2] | IC50 [3]
1 | CCC(NCc1ccccc1C)c1ccccc1OCC(=O)NC (centres undefined) | 6.158 | 0.731 µM | – | –
2 | CCNc1ccnc(CN2CCCC2C(=O)Nc2nccs2)c1 (centres undefined) | 6.462 | 0.367 µM | – | –
3 | CC(C)n1ncc2c1NC(=O)CC21C(=O)Nc2c(Cl)ccc(Cl)c21 (centres undefined) | 5.929 | 1.08 µM | – | –
4 | CN1CCC(N(Cc2ccco2)S(=O)(=O)c2ccc(Cl)cc2)CC1 | 6.409 | 0.56 µM | – | –
5 | Cc1oc(-c2cc(F)cc(F)c2)nc1CN1C[C@@H](C)NC[C@@H]1C | 5.947 | 0.719 µM | – | –
6 | COCCOc1ccccc1CNCC1COC2(CCCC2)O1 (centres undefined) | 6.238 | 0.727 µM | – | –
7 | O=C(O)C(F)(F)F.c1ccc(N2CCCC3(CCN(Cc4ccsc4)C3)C2)nc1 (centres undefined) | 6.157 | 0.842 µM | – | –
8 | CCN(CC1CN(Cc2nc(C3CC3)no2)CCO1)c1cccnn1 (centres undefined) | 5.75 | 1.86 µM | – | –
9 | Cn1cc(CN2CCCC(CCc3ccccc3C(F)(F)F)C2)cn1 (centres undefined) | 6.083 | 0.726 µM | – | –
10 | COc1ccc(C(=O)NCCCOC(C)c2ccccc2)c(OC)c1 (centres undefined) | 6.022 | 0.763 µM | – | –
11 | Clc1ccc(C2(CNC3=NCCN3)CCCC2)cc1.I | 6.736 | 0.226 µM | – | –
12 | CCNC(=O)N(C)C1CCN(Cc2ncc(C)c(OC)c2C)CC1 | 5.844 | 1.59 µM | – | –
13 | CC(NCC1CCN(CCO)CC1)c1ccc(F)c(Cl)c1 (centres undefined) | 6.184 | 0.758 µM | – | –
14 | CCN(CC)Cc1ccccc1NC(=O)N(C)Cc1ccccc1O | 6.076 | 0.765 µM | – | –
15 | CCC[C@H]1CN(S(=O)(=O)c2ccc(-c3c(C)noc3C)s2)C[C@@H]1N | 6.179 | 0.798 µM | – | –
16 | CCC(CN1CCCCC1)NC(=O)C1(c2ccc(F)cc2)CC1.O=C(O)CC(O)(CC(=O)O)C(=O)O (centres undefined) | 6.19 | 0.709 µM | – | –
17 | CN(C)c1nc2c(c(NCc3cc(O)ncn3)n1)CCCC2 | 6.202 | 0.643 µM | – | –
18 | Cc1cnccc1CN1CC[C@H](Oc2cccc(F)c2)[C@@](C)(O)C1 | 5.772 | 1.42 µM | – | –
19 | I.c1cc2c(cc1C1(CNC3=NCCN3)CCCC1)OCCO2 | 6.321 | 0.547 µM | – | –
20 | COc1ccc(CCC(=O)NCCN2CCC(c3cccs3)CC2)cc1 | 6.185 | 0.781 µM | – | –
21 | CC(NCCN1CCC(N(C)C)CC1)c1ccc(Cl)s1 (centres undefined) | 6.149 | 0.996 µM | – | –
22 | CN(C)CCn1nc(C2CCN(Cc3ccccc3)C2)c2cccnc21 (centres undefined) | 5.827 | 2.24 µM | – | –
23 | OCCN1CCC(CNCc2ccc(Br)cc2)CC1 | 6.334 | 0.364 µM | – | –
24 | Clc1cccc(C(NCc2ncc[nH]2)c2ccccn2)c1 (centres undefined) | 6.581 | 0.225 µM | – | –
25 | O=C(CC1CCCC1)NCCNCc1cccc2c1OCCO2 | 6.128 | 0.938 µM | – | –

Row | SMILES | pIC50 [1] | IC50 [1] | IC50 [2] | IC50 [3]
26 | Cc1cc(C)c(CNCC(O)c2ccc(F)c(F)c2)c(C)c1.Cl (centres undefined) | 6.932 | 0.125 µM | – | –
27 | CN1CCn2c(-c3cccc(F)c3)cnc2C12CCN(CC1CC1)CC2.O=C(O)C(F)(F)F.O=C(O)C(F)(F)F.O=C(O)C(F)(F)F | 6.083 | 1.1 µM | – | –
28 | Cc1cc(S(=O)(=O)N2CCC(N3CCC(O)C3)CC2)c(Cl)cc1Cl (centres undefined) | 5.897 | 0.958 µM | – | –
29 | Cc1nn(C)cc1C1=NS(=O)(=O)N(C)C(C(=O)Nc2ccc(Cl)cc2)=C1 | 6.442 | 0.247 µM | – | –
30 | CCc1ccc(CN(CCN(C)C)Cc2ccc(C)s2)nc1 | 6.04 | 0.965 µM | – | –
31 | COc1ccnc(CN2CCCC(CCc3ccccc3)C2)c1OC (centres undefined) | 5.985 | 1.03 µM | – | –
32 | CCC(NCc1ccccc1Cl)c1ccccc1OCC(=O)NC (centres undefined) | 6.134 and 5.792 | – | – | –
33 | Cc1ccc(CN2CCCC3(CCN(Cc4ccoc4)CC3)C2)cc1.O=C(O)C(F)(F)F.O=C(O)C(F)(F)F | 6.068 | 1.11 µM | – | –
34 | COc1ccc(NC(=O)Nc2cnc(N3CCN(C)CC3)nc2)cc1Cl | 6.139 | 0.843 µM | – | –
35 | Cc1cc(Cl)ccc1S(=O)(=O)NCC(C)N1CCN(C)CC1 (centres undefined) | 6.144 | 0.444 µM | – | –
36 | OCc1csc(N2CCCC(COc3cccc(F)c3)C2)n1 (centres undefined) | 6.326 | 0.363 µM | – | –
37 | CN1CCC(N(C)c2ccccc2CNCc2ccco2)CC1 | 6.649 | 0.157 µM | – | –
38 | Cc1n[nH]cc1CNC1(c2ccc(F)cc2)CCCC1 | 6.295 | 0.584 µM | – | –
39 | C=Cc1cccc(CN2C[C@@H](CN(C)CC)[C@@H](CO)C2)c1 | 5.976 | 1.05 µM | – | –
40 | CN(Cc1ccsc1)c1nc(-c2ccccn2)nc2c1CCNCC2 | 6.41 | 0.399 µM | – | –
41 | Cc1ccc(CN2CCC3(CC2)CCN(Cc2ccoc2)CC3)cc1.O=C(O)C(F)(F)F.O=C(O)C(F)(F)F | 6.821 | 0.202 µM | – | –
42 | CN(C)[C@@H]1CCN(S(=O)(=O)C2CC2)[C@H]1Cc1ccccc1.O=C(O)C(F)(F)F | 5.682 | 2.83 µM | – | –
43 | Cl.Fc1cccc(F)c1Cn1c(C2CCNCC2)cc2cccnc21 | 6.523 | 0.307 µM | – | –
44 | Cc1cccnc1CN1CC[C@H](Oc2cccc(F)c2)[C@@](C)(O)C1 | 6.112 | 0.71 µM | – | –
45 | Cc1cccnc1CC(C)NC1Cc2ccccc2C1 (centres undefined) | 5.954 | 1.29 µM | – | –
46 | O=C(c1ccccc1)C1CCN(Cc2cc3c(cc2O)CCC3)CC1 | 6.259 | 0.613 µM | – | –
47 | COc1cccc(Nc2ccc(N)nc2)c1 | – | – | 128 µM | 241 µM
48 | CC(C)(C)OC(=O)c1ncccc1N | – | – | > 501 µM | 265 µM
49 | O=C(Nc1cccc(-n2cccn2)c1)N1CCSCC1 | – | – | > 501 µM | > 501 µM
50 | CC(C)C(C)(C#N)NC(=O)CNc1cccc(F)c1 (centres undefined) | – | – | 307 µM | 292 µM

Row | SMILES | pIC50 [1] | IC50 [1] | IC50 [2] | IC50 [3]
51 | CN(C)c1cc(CNc2ccc(C#N)cn2)ccn1 | – | – | 205 µM | 453 µM
52 | O=C(NCCNC(=O)C1CCCC1)c1ccccc1O | – | – | 229 µM | 402 µM
53 | CC1Cc2ccccc2N1C(=O)c1ccccn1 (centres undefined) | – | – | > 501 µM | > 501 µM
54 | COc1ccc(CC(=O)Nc2c(C)nc(N3CCCC3)nc2C)cc1 | – | – | > 50.1 µM | > 50.1 µM
55 | CCOC(=O)Nc1ccc2c(c1)OCCO2 | – | – | > 501 µM | 325 µM
56 | CCC(C)(C)NC(=O)c1ccn(-c2ccccc2F)n1 | – | – | 361 µM | 350 µM
57 | O=C(NC1CCCCC1)c1ccc(CO)cc1 | – | – | 161 µM | 143 µM
58 | NC1CCCN(S(=O)(=O)C=Cc2cccc(Cl)c2)C1 (centres undefined) | – | – | 216 µM | 257 µM
59 | O=C(c1cc(Br)c[nH]1)N1CCN2CCCCC2C1 (centres undefined) | – | – | 232 µM | > 501 µM
60 | CCOc1ccc(CC(=O)N2CCN(CC)CC2)cc1 | – | – | 371 µM | > 501 µM
61 | Cc1nn(C)c2nc(NCCSc3ncn[nH]3)sc12 | – | – | > 501 µM | > 501 µM
62 | NCc1ccnc(OCC(F)(F)F)c1 | – | – | 50 µM | 88.7 µM
63 | CSCCC(=O)N(C)Cc1cccc(-n2cccn2)c1 | – | – | 269 µM | 286 µM
64 | CCCc1ccc(S(=O)(=O)N2CCNCC2)cc1 | – | – | 299 µM | > 501 µM
65 | NCc1cccc(-c2nc(-c3ccncc3)no2)c1 | – | – | > 501 µM | 286 µM
66 | NCC1CCCN1CCc1ccccc1 (centres undefined) | – | – | > 501 µM | > 501 µM
67 | O=C1CCCCN1Cn1cc(I)cn1 | – | – | 251 µM | 318 µM
68 | CNc1nc(NCCS(C)(=O)=O)ncc1Br | – | – | > 501 µM | > 501 µM
69 | CCNC(=O)CNc1ccc(Br)cc1 | – | – | 162 µM | 210 µM
70 | O=C(CN(C1=NCCCCC1)c1ccc(Cl)cc1)c1ccccc1 | – | – | 20.7 µM | 22.8 µM
71 | CC(NS(=O)(=O)N(C)C1CCCCC1)c1ccccn1 (centres undefined) | – | – | 75.6 µM | 159 µM
72 | CC[C@@H](CO)NC(=O)NCC(C)c1ccsc1 (some centres undefined) | – | – | 483 µM | 495 µM
73 | Cc1ncsc1CCCNC(=O)c1cnccn1 | – | – | > 501 µM | > 501 µM
74 | CCn1nnc(NCc2ccc(-c3ccc(Br)cc3)o2)n1 | – | – | 44.3 µM | 14.1 µM
75 | CCc1nc(CNc2ccc(F)cc2I)no1 | – | – | 3.04 µM | 2.44 µM
